Experimental findings from patent US20090203693A1, “THERAPEUTIC AGENT FOR LIVER FIBROSIS” (Eisai R & D Management Co., Ltd., priority 2006, published 2009) are described below.

Assay [1] has as its system thioacetamide-induced hepatic fibrillization in Balb/cAnN female mice. In words: Mouse models of thioacetamide-induced cirrhosis (Azan staining of liver sections). The class given is in vivo. As to conditions: orally once daily at 1 or 3 mg/kg, thioacetamide i.p. twice a week for five weeks. Here is the method: Thioacetamide (purchased from Tokyo Chemical Industry) was intraperitoneally administered at 150 mg/kg for the first week and 200 mg/kg for the next second to fifth weeks to Balb/cAnN female mice (purchased from Charles River Laboratories) twice a week. The test substance (Compound 3) was suspended in 0.5% methylcellulose aqueous solution and orally administered once daily at 1 or 3 mg/kg. Three days after the final thioacetamide administration, livers were removed from the mice and subjected to 10% neutral buffered formalin fixation followed by Azan staining (staining technique is described in “Medical Technology, supp., new technique for staining” (Ishiyaku Publisher, 1999)). The degree of fibrillization was examined by observation of the stained tissue sections. Experiments were conducted for a group without the administration of thioacetamide (6 examples), a group administered with thioacetamide but a test substance (3 examples), a group administered with Compound 3 at 1 mg/kg (6 examples) and a group administered with Compound 3 at 3 mg/kg (3 examples).

Assay [2] addresses T1, His6-DDR2 (cytoplasmic domain of human DDR2) (Homo sapiens, UniProt Q16832).
T1 construct: cytoplasmic domain of DDR2 having 6 histidines fused to the N-terminus thereof; made in house; host or cells: Sf9 insect cells (baculovirus, pFastBac-HT)
T1 sequence (Q16832 422-855 limits assumed): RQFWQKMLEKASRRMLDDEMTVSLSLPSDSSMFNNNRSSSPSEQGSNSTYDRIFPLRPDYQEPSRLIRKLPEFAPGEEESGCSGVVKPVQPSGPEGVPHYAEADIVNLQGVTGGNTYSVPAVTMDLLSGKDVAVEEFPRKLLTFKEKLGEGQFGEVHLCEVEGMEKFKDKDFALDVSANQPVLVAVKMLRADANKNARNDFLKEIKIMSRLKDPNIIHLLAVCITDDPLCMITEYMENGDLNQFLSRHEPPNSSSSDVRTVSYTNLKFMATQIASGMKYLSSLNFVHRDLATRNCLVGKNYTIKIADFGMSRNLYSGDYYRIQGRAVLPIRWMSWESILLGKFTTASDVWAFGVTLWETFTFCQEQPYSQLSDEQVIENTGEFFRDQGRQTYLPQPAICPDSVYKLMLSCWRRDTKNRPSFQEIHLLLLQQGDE
In words: Determination of DDR2 kinase inhibitory activity (His6-DDR2 tyrosine autophosphorylation, HTRF). The class given is biochemical. Particulars: cell free, ATP, room temperature 10 minutes, HTRF detection; read-out: IC50 (concentration of the test substance required for inhibiting His6-DDR2 kinase activity by 50%). The source says: A DNA fragment of cytoplasmic domain of human DDR2 (SEQ ID NO: 1) was isolated by PCR method (Expand High Fidelity (purchased from Roche)) according to a conventional technique using human brain cDNA library (purchased from Clontech) as a template and SEQ ID NO:3: 5′-[…]-3′ and SEQ ID NO:4: 5′-[…]-3′ (purchased from JBioS) as primers. This DNA fragment was inserted into a baculovirus transplacement vector (pFastBac™-HT (purchased from Invitrogen)) to obtain a recombinant construct. Insect cells (Spodoptera frugiperda 9 (Sf9 cells)) were transfected with this recombinant construct, thereby preparing a DDR2 recombinant baculovirus solution. For preparation of a recombinant baculovirus, we referred to a standard textbook (Bac-to-Bac Baculovirus Expression System (Invitrogen)).
The above-described DDR2 recombinant Baculovirus solution (0.07 mL) was added to Sf9 cells (7×10^7 cells) suspended in 2.5% FBS-containing SF-900II medium (purchased from Invitrogen) and shake-cultured at 27° C. for 72 hours. Then, this DDR2 recombinant Baculovirus-infected cells were subjected to centrifugation at 1,600 rpm at 4° C. for 6 minutes and the supernatant was removed. The precipitated infected cells were suspended in 10 mL of ice-cold PBS and centrifuged at 1,600 rpm at 4° C. for 6 minutes to remove the supernatant. The precipitated infected cells were suspended in 5 mL of ice-cold lysis buffer (50 mM Tris-HCl (pH 8.5), 5 mM 2-mercaptoethanol, 100 mM KCl, 1 mM PMSA, 1% (v/v) NP40), and centrifuged at 10,000 rpm at 4° C. for 10 minutes to obtain the supernatant.
This supernatant was added to a Ni-NTA agarose column (1.5 mL (purchased from Qiagen)) equilibrated with 5 mL of buffer A (20 mM Tris-HCl (pH 8.5), 5 mM 2-mercaptoethanol, 500 mM KCl, 20 mM imidazole, 10% (v/v) glycerol). This column was sequentially washed with 10 mL of buffer A, 2 mL of buffer B (20 mM Tris-HCl (pH8.5), 5 mM 2-mercaptoethanol, 1 M KCl, 10% (v/v) glycerol) and 2 mL of buffer A. Subsequently, 4 mL of buffer C (20 mM Tris-HCl (pH 8.5), 5 mM 2-mercaptoethanol, 100 mM KCl, 100 mM imidazole, 10% (v/v) glycerol) was added to obtain an eluate. This eluate was placed in a dialysis membrane (purchased from Spectrum Medical Industries) and dialyzed against 1 L of dialysis buffer (20 mM Tris-HCl, 10% (v/v) glycerol, 1 mM dithiothreitol, 0.1 mM Na3VO4, 0.1 mM EGTA) at 4° C. overnight. After dialysis, a portion of the eluate was subjected to SDS-PAGE and an amount of the recombinant protein detected at a molecular weight of about 40 kDa (His6-DDR2 (cytoplasmic domain of DDR2 having 6 histidines fused to the N-terminus thereof)) by Coomassie brilliant blue staining was quantitated using BSA as a standard substance.
To each well of a 96-well black half plate (purchased from Corning, Product No: 3694), 20 ng of His6-DDR2, 35 μL of 25 mM Hepes solution (pH 7.4) containing 14 mM MgCl2 and a test substance dissolved in dimethylsulfoxide (at 100-fold dilution with 1% BSA; 5 μL) were added to a total amount of 40 μL. To this, […] of 50 μM ATP (purchased with Sigma) diluted with 25 mM Hepes solution was added and incubated at room temperature for 10 minutes. Thereafter, 10 μL of 50 mM EDTA (pH 8.0) (purchased from Wako Pure Chemical Industries) was added to terminate the kinase reaction.
Tyrosine-phosphorylated DDR2 was detected using homogeneous time resolved fluorescence (HTRF) technique (Analytical Biochemistry, 269, 94-104, 1999). Specifically, to each well of the reaction solutions mentioned above, 20 μL of 25 mM Hepes solution containing 1 M KF, 4.75 ng of europium cryptate-labeled anti-phosphorylated tyrosine antibody (Eu(K)-PT66) and 100 ng of XL665-labeled anti-His antibody (XL665-Anti-His) was added. This reaction solution was incubated at room temperature overnight. Thereafter, fluorescence intensities of each well at 665 nm and 620 nm were measured under irradiation at an excitation wavelength of 337 nm using Discovery HTRF microplate analyzer (from Packard). […]
For orientation: TR-FRET usually uses a lanthanide donor and a delayed reading to cut background.

Turning to `COc1cc2nccc(Oc3ccc(NC(=O)Nc4nccs4)cc3)c2cc1OC` [Compound 3, N-(2-thiazole)-N′-(4-((6,7-dimethoxy-4-quinolinyl)oxy)phenyl)urea], the “degree of hepatic fibrillization (observation of stained tissue sections)” value in assay [1] is recorded as “suppressed hepatic fibrillization in a dose-dependent manner”. The IC50 in assay [2] is 0.18 nM.
